Assay results: ChEMBL document CHEMBL2074490, “Transport and uptake of nateglinide in Caco-2 cells and its inhibitory effect on human monocarboxylate transporter MCT1” (Br J Pharmacol, 2002)

Molecular target: Monocarboxylate transporter 1 (Homo sapiens) (UniProt P53985)
Experiment: TP_TRANSPORTER: uptake in Xenopus laevis oocytes
Conditions: Oocyte

Chain of Monocarboxylate transporter 1 (Homo sapiens) (P53985 whole entry, looked up): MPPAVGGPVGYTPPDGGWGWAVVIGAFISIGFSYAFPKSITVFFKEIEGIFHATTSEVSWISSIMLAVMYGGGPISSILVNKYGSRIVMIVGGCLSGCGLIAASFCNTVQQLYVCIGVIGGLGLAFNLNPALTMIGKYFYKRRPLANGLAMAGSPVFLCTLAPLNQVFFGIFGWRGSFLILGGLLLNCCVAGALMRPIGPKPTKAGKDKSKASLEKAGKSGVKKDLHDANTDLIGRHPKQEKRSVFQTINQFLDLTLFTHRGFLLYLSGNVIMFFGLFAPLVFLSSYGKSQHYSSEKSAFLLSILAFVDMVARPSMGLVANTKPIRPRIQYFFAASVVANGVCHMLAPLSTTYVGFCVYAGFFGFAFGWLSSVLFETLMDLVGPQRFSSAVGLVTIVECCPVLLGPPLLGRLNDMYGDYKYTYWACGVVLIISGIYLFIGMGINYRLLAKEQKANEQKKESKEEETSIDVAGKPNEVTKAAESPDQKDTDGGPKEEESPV

Activity: is not a substrate [-]
SMILES: CC(C)[C@H]1CC[C@H](C(=O)N[C@H](Cc2ccccc2)C(=O)O)CC1
